Experimental data as given in the OPERA property sets (Mansouri et al. 2018).

Q: For `COc1cc(OC)nc(N=C(O)NS(=O)(=O)c2c(Cl)nc3ccccn23)n1`, which log10 vapour pressure (mmHg) is on record?
A: -9.47

Q: With `CC=C(C)CCC` as the compound, how does the log10 vapour pressure (mmHg) read?
A: 1.7

Q: Which melting point does the source give for `CCCCCCCCCCCCCCCCCCOC(C)=O` here?
A: 34.5 °C

Q: Which boiling point does the source give for `CC=C(C)Cl` here?
A: 64.5 °C

Q: And the melting point?
A: -19 °C

Q: With `OC[C@@H](O)[C@H](O)[C@@H](O)CO` as the compound, how does the melting point read?
A: 98.8 °C

Q: And the ready biodegradability?
A: readily biodegradable

Q: With `CC(C)[N+](=O)[O-]` as the compound, how does the boiling point read?
A: 120 °C

Q: And the log10 vapour pressure (mmHg)?
A: 1.24

Q: What about the melting point of the same compound?
A: -91.3 °C

Q: Which melting point does the source give for `COC(=O)c1ccc2c(c1)OCO2` here?
A: 53 °C

Q: For `C1CC2OC2CC1C1CO1` (centres undefined), which boiling point is on record?
A: 227 °C

Q: What about the ready biodegradability of the same compound?
A: not readily biodegradable

Q: Which melting point does the source give for `C=CC(=O)NC(C)C` here?
A: 64 °C

Q: For `O=[N+]([O-])c1cc(F)c(F)cc1F`, which boiling point is on record?
A: 194 °C

Q: And the melting point?
A: -11 °C

Q: What does the source list for `COS(=O)(=O)c1ccc(C)cc1`?
A: boiling point: 292 °C; melting point: 28.5 °C

Q: For `Nc1ccc(C(=O)N[C@@H](CCC(=O)O)C(=O)O)cc1`, which melting point is on record?
A: 173 °C

Q: With `CCCCCCCCCCCC(C)O` (centres undefined) as the compound, how does the melting point read?
A: 23 °C

Q: Which boiling point does the source give for `FC(Cl)(Br)Br` here?
A: 80.3 °C

Q: Which melting point does the source give for `O=C1CSC(=O)N1` here?
A: 128 °C

Q: With `CCOS(=O)(=O)OCC` as the compound, how does the boiling point read?
A: 208 °C

Q: What about the log10 vapour pressure (mmHg) of the same compound?
A: -0.674

Q: And the melting point?
A: -24 °C

Q: What about the ready biodegradability of the same compound?
A: readily biodegradable

Q: Which results are given for `CCCCCCCCCCCCC`?
A: boiling point: 235 °C; log10 biodegradation half-life (days): 1.08; log10 vapour pressure (mmHg): -1.25; melting point: -5.3 °C; ready biodegradability: readily biodegradable

Q: Which boiling point does the source give for `c1ccc2c(c1)CCCN2` here?
A: 251 °C

Q: What about the melting point of the same compound?
A: 20 °C

Q: With `COC(C)CO` (centres undefined) as the compound, how does the boiling point read?
A: 130 °C

Q: With `CC(C)NCC(O)c1ccc2ccccc2c1` (centres undefined) as the compound, how does the melting point read?
A: 108 °C

Q: Which log10 Koc (L/kg) does the source give for `CC1(C)C(C=C(Cl)Cl)C1C(=O)OC(C#N)c1ccc(F)c(Oc2ccccc2)c1` (centres undefined) here?
A: 5

Q: And the log10 vapour pressure (mmHg)?
A: -9.82

Q: And the melting point?
A: 60 °C

Q: With `NNc1cc(Cl)ccc1Cl` as the compound, how does the melting point read?
A: 102 °C

Q: For `C#CCCCCCCCCCCCCCC`, which boiling point is on record?
A: 284 °C

Q: And the melting point?
A: 15 °C

Q: For `C=CC=CC#N`, which boiling point is on record?
A: 136 °C

Q: What about the melting point of the same compound?
A: -60 °C

Q: For `O=C1C(O)=C(O)C(=O)c2ccccc21`, which melting point is on record?
A: 282 °C

Q: Which melting point does the source give for `O=C(O)[C@H]1CC[C@H]1C(=O)O` here?
A: 131 °C

Q: For `CCC(C)(O)CC(C)C` (centres undefined), which boiling point is on record?
A: 152 °C

Q: For `O=C(CCNNC(=O)c1ccncc1)NCc1ccccc1`, which melting point is on record?
A: 152 °C

Q: With `CCOC(C)C` as the compound, how does the boiling point read?
A: 54.1 °C

Q: With `O=C(OOC(=O)c1ccc(Cl)cc1Cl)c1ccc(Cl)cc1Cl` as the compound, how does the melting point read?
A: 106 °C

Q: What about the ready biodegradability of the same compound?
A: not readily biodegradable

Q: With `CC(C)CCOC=O` as the compound, how does the boiling point read?
A: 124 °C

Q: What about the log10 Henry constant (atm·m³/mol) of the same compound?
A: -3.17

Q: What about the log10 vapour pressure (mmHg) of the same compound?
A: 1.18

Q: What about the melting point of the same compound?
A: -93.5 °C

Q: For `O=C1CC[C@@]2(O)[C@H]3Cc4ccc(O)c5c4[C@@]2(CCN3CC2CC2)[C@H]1O5`, which melting point is on record?
A: 169 °C

Q: Which results are given for `CCCCC(=O)O`?
A: boiling point: 186 °C; log10 Henry constant (atm·m³/mol): -6.33; log10 vapour pressure (mmHg): -0.708; melting point: -34 °C; ready biodegradability: readily biodegradable

Q: With `CC(=O)CC(=O)Nc1ccccc1` as the compound, how does the log10 vapour pressure (mmHg) read?
A: -4.28

Q: What about the melting point of the same compound?
A: 86 °C

Q: What about the ready biodegradability of the same compound?
A: readily biodegradable

Q: Which log10 Koc (L/kg) does the source give for `COC(=O)C(C)Oc1ccc(Oc2ccc(Cl)cc2Cl)cc1` (centres undefined) here?
A: 4.2

Q: And the log10 vapour pressure (mmHg)?
A: -5.46

Q: What about the melting point of the same compound?
A: 40 °C

Q: And the ready biodegradability?
A: readily biodegradable

Q: For `Cc1cc(CC(C)CC(C)(C)C)n(O)c(=O)c1` (centres undefined), which melting point is on record?
A: 108 °C

Q: Which melting point does the source give for `Cc1ncc(COP(=O)(O)O)c(C=O)c1O.O` here?
A: 142 °C

Q: Which boiling point does the source give for `c1ccc(OCC2CO2)cc1` (centres undefined) here?
A: 245 °C

Q: What about the log10 vapour pressure (mmHg) of the same compound?
A: -2

Q: What about the melting point of the same compound?
A: 3.5 °C

Q: What about the ready biodegradability of the same compound?
A: not readily biodegradable

Q: Which log10 vapour pressure (mmHg) does the source give for `CN=C(O)/C(=N/OC)c1ccccc1Oc1ccccc1` here?
A: -6.87

Q: What about the melting point of the same compound?
A: 88 °C

Q: Which boiling point does the source give for `Cc1coc(C)n1` here?
A: 108 °C

Q: Which melting point does the source give for `CCC1(CCC(C)C)C(=O)NC(=O)NC1=O` here?
A: 157 °C

Q: With `CC(C)CN(CC(C)C)CC(C)C` as the compound, how does the boiling point read?
A: 192 °C

Q: What about the melting point of the same compound?
A: -21.8 °C

Q: For `CCC(=O)c1ccc(O)cc1O`, which melting point is on record?
A: 99 °C

Q: Which melting point does the source give for `CCCOC(=O)CCCCC(=O)OCCC` here?
A: -15.7 °C

Q: For `NCC(CC(=O)O)c1ccc(Cl)cc1` (centres undefined), which melting point is on record?
A: 207 °C

Q: For `CC(C)C1=CC[C@H]2C(=C1)CC[C@@H]1[C@]2(C)CCC[C@@]1(C)C(=O)O`, which melting point is on record?
A: 150 °C

Q: With `CCCC(C)(C)c1ccccc1` as the compound, how does the boiling point read?
A: 206 °C

Q: Which log10 vapour pressure (mmHg) does the source give for `CCCCCCCCCCCCC(=O)OC` here?
A: -2.89

Q: What about the melting point of the same compound?
A: 6.5 °C

Q: For `CCCCCCCCCCCCCCC=O`, which melting point is on record?
A: 24.5 °C

Q: Which melting point does the source give for `O=C(CC(=O)C(F)(F)F)c1cccs1` here?
A: 42 °C

Q: With `CCC(C)=NO` as the compound, how does the boiling point read?
A: 152 °C

Q: And the melting point?
A: -29.5 °C

Q: What about the ready biodegradability of the same compound?
A: not readily biodegradable

Q: What does the source list for `Cc1ccc2cc(C)ccc2c1`?
A: boiling point: 262 °C; log10 vapour pressure (mmHg): -2.37; melting point: 112 °C

Q: With `c1ccc(C2c3ccccc3-c3ccccc32)cc1` as the compound, how does the melting point read?
A: 147 °C

Q: With `O=C(O)COc1ccc(Cl)cc1Cl` as the compound, how does the log10 Koc (L/kg) read?
A: 1.66

Q: And the log10 vapour pressure (mmHg)?
A: -4.08

Q: What about the melting point of the same compound?
A: 140 °C

Q: And the ready biodegradability?
A: not readily biodegradable

Q: For `CC(C)CC=NO`, which boiling point is on record?
A: 161 °C

Q: And the melting point?
A: 48.5 °C

Q: Which melting point does the source give for `CC(=O)OOC(C)=O` here?
A: 30 °C

Q: With `N[C@@H]1CONC1=O` as the compound, how does the melting point read?
A: 140 °C

Q: With `Cc1cc(OC(=O)N(C)C)n(-c2ccccc2)n1` as the compound, how does the melting point read?
A: 50 °C

Q: Which results are given for `CCCCCCCCCCCCCCO`?
A: boiling point: 289 °C; log10 vapour pressure (mmHg): -3.96; melting point: 39.5 °C; ready biodegradability: readily biodegradable

Q: What does the source list for `FC(Cl)=C(Cl)Cl`?
A: boiling point: 71 °C; melting point: -109 °C

Q: Which melting point does the source give for `C[C@H](CS)C(=O)N1CCC[C@H]1C(=O)O` here?
A: 106 °C

Q: Which boiling point does the source give for `O=C(O)C(F)(F)C(F)(F)F` here?
A: 96.5 °C

Q: Which melting point does the source give for `Cc1cc(Br)ccc1[N+](=O)[O-]` here?
A: 78 °C

Q: Which boiling point does the source give for `Cl[C@@H]1CCCC[C@H]1Cl` here?
A: 200 °C

Q: And the melting point?
A: -1.5 °C

Q: With `Cc1ncc(CO)c(CO)c1O` as the compound, how does the melting point read?
A: 160 °C

Q: For `O=C(O)C(F)(F)C(F)(F)C(F)(F)F`, which boiling point is on record?
A: 121 °C

Q: And the log10 vapour pressure (mmHg)?
A: 0.804

Q: What about the melting point of the same compound?
A: -17.5 °C
